Experimental data taken from patent US12384777B2 (Tay Therapeutics Limited, priority 2019, dated 2025).
Where two headings read alike, the source gives them in different places.

Key:
[1] = test system: healthy human skin stimulated by a Th2 or Th17 biasing cocktail; experiment: Th2 and Th17 stimulation of human skin explants, IL-4 / IL-17A mRNA; type: cell-based
Description: • 1. Freshly excised healthy human skin tissue from abdominoplasties is defatted, cleaned and sectioned into 7 mm biopsies. • 2. The biopsies are placed in Transwell® inserts with the epidermis apical and exposed to air and the dermis submerged in media in the basal chamber. • 3. The biopsies are pre-treated overnight at 37° C., 5% CO2 with different compounds and controls added to the media in the basal chamber. • 4. The next day, contents of the basal chamber is replaced with fresh media containing the test compound and a stimulation cocktail for either Th2 inflammation (proprietary Medpharm cocktail) or Th17 inflammation (mix of antibodies against CD3, CD28, IL-4, IFNγ and recombinant IL-1β, IL-6, IL-21, TGF-β). • 5. The biopsies are incubated at 37° C., 5% CO2 for a further 24 hrs. • 6. After harvesting, the biopsies are cut in half, and one half is homogenized and used for RNA extraction by standard methods. IL-4 or IL-17A is assessed by RT-qPCR.

BRDT(1) = BRDT(1) (Homo sapiens (Human), UniProt Q58F21); experiment: Bromodomain binding assay, BRDT(1)
Description: (§1) T7 phage strains displaying bromodomains were grown in parallel in 24-well blocks in an E. coli host derived from the BL21 strain. E. coli were grown to log-phase and infected with T7 phage from a frozen stock (multiplicity of infection=0.4) and incubated with shaking at 32° C. until lysis (90-150 min). The lysates were centrifuged (5,000×g) and filtered (0.2 μm) to remove cell debris. Streptavidin-coated magnetic beads were treated with biotinylated small molecule or acetylated peptide ligands for 30 min at RT to generate affinity resins for bromodomain assays. The ligated beads were blocked with excess biotin and washed with blocking buffer (SeaBlock (Pierce), 1% BSA, 0.05% Tween 20, 1 mM DTT) to remove unbound ligand and to reduce non-specific phage binding. Binding reactions were assembled by combining bromodomains, ligated affinity beads, and test compounds in 1× binding buffer (16% SeaBlock, 0.32×PBS, 0.02% BSA, 0.04% Tween 20, 0.004% Sodium azide, 7.9 mM DTT). Test compounds were prepared as 1000× stocks in 100% DMSO and subsequently diluted 1:25 in MEG. The compounds were then diluted directly into the assays such that the final concentrations of DMSO and MEG were 0.1% and 2.4%, respectively. All reactions were performed in polypropylene 384-well plates in a final volume of 0.02 ml. The assay plates were incubated at RT with shaking for 1 hr and the affinity beads were washed with wash buffer (1×PBS, 0.05% Tween 20). The beads were then re-suspended in elution buffer (1×PBS, 0.05% Tween 20, 2 μM non-biotinylated affinity ligand) and incubated at RT with shaking for 30 min. The bromodomain concentration in the eluates was measured by quantitative polymerase chain reaction (qPCR).
(§2) An 11-point 3-fold serial dilution of each test compound was prepared in 100% DMSO at 1000× final test concentration. […] Most dissociation constants were determined using a compound top concentration=10,000 nM. If the initial dissociation constant determined was <0.169 nM (the lowest concentration tested), the measurement was repeated with a serial dilution starting at a lower top concentration. […]

BRD2(1) = BRD2(1) (Homo sapiens (Human), UniProt P25440); experiment: Bromodomain binding assay, BRD2(1)
Description: as §1, §2

BRD4 BD2 = BRD4 BD2 (Homo sapiens (Human), UniProt O60885); experiment: Bromodomain binding assay (T7 phage display, qPCR), BRD4 BD2
Description: as §1
(§3) An 11-point 3-fold serial dilution of each test compound was prepared in 100% DMSO at 1000× final test concentration. All compounds were distributed by acoustic transfer (non-contact dispensing) in 100% DMSO. The compounds were then diluted directly into the assays such that the final concentration of DMSO was 0.09%. Most dissociation constants were determined using a compound top concentration=10,000 nM. If the initial dissociation constant determined was <0.169 nM (the lowest concentration tested), the measurement was repeated with a serial dilution starting at a lower top concentration.
(§4) The same bromodomain assay procedure as that outlined above was used. Example compounds were screened at 30 times their Kd, and results for primary screen binding interactions are reported as ‘% Ctrl’, where lower numbers indicate stronger hits in the matrix.

BRD3(1) = BRD3(1) (Homo sapiens (Human), UniProt Q15059); experiment: Bromodomain binding assay, BRD3(1)
Description: as §1, §2

[2] = test system: CD4+ T-cells stimulated by CD2, CD3 and CD28 antibodies; experiment: Cellular activity IL-4: reduction of IL-4 levels in activated CD4+ T-cells; type: cell-based, human; details: Homo sapiens, T-cell
Description: • 1. CD4^+ T-cells are isolated from cryopreserved human peripheral blood mononuclear cells (PBMCs) using EasySep™ Kit (Cat. No. 17952, Stemcell Technologies). • 2. CD2, CD3 and CD28 antibodies coated beads from T cell Activation/Expansion Kit (Cat. No. 130-091-441, Miltenyi Biotec) are added to the CD4^+ T-cells at a bead-to-cell ratio of 1:2. • 3. CD4^+ T-cells along with the beads are seeded at 2×10^5 cells/well in a round bottom 96-well plate and treated with different compounds and controls in a total volume of 200 μl. • 4. The cells are cultured for 48 hrs at 37° C., 5% CO2. • 5. Supernatant is collected and IL-4 is analysed by ELISA.

BRDT(2) = BRDT(2) (Homo sapiens (Human), UniProt Q58F21); experiment: Bromodomain binding assay, BRDT(2)
Description: as §1, §2

BRD3(2) = BRD3(2) (Homo sapiens (Human), UniProt Q15059); experiment: Bromodomain binding assay, BRD3(2)
Description: as §1, §2

BRD2(2) = BRD2(2) (Homo sapiens (Human), UniProt P25440); experiment: Bromodomain binding assay, BRD2(2)
Description: as §1, §2

human liver hepatocytes = experiment: Intrinsic clearance in human liver hepatocytes; type: in vitro ADME; details: human cryopreserved hepatocytes, 0.5 μM test compound
Description: Vials of human cryopreserved hepatocytes, supplied by Life Technologies, were thawed according to manufacturer's instructions and cells re-suspended in Williams Medium E (WME) containing cell maintenance supplement pack (CM4000, Life Technologies). Hepatocytes were incubated in suspension (0.5 million cells/mL) in 48 well non-collagen coated cell culture plates for 10 min at 37° C., 5% CO2. Upon addition of an equal volume of supplemented WME containing 1 μM test compound, an aliquot of incubation solution was removed to acetonitrile containing internal standard (final concentration 0.5 μM test compound and a cell density of 0.25 million cells/mL). Similarly, aliquots were removed at 3, 6, 9, 15, 30, 45, 60, 90 and 120 min. 100 μL of 80:20 water:acetonitrile was added to all samples and the analysis plate was centrifuged for 10 min at RT prior to injection and analysis of samples by UPLC-MS/MS. The response (area ratio of test compound to internal standard) was plotted against time using an exponential decay model from which rate of disappearance was calculated.

BRD4 BD1 = BRD4 BD1 (Homo sapiens (Human), UniProt O60885); experiment: Bromodomain binding assay (T7 phage display, qPCR), BRD4 BD1
Description: as §1, §3, §4

[3] = Stability in human skin S9 fraction; type: in vitro ADME; details: 0.3 mg/mL S9, NADPH, UDPGA, 0.5 μM compound; for half-life at 0.5 μM: human, human skin S9 fraction, pH 7.4, read-out: T1/2 (min) in human skin S9 fractions
Description: An incubation mixture was prepared containing 50 mM potassium phosphate buffer, pH 7.4), 0.3 mg/mL human skin S9 (Sekisui Xenotech), NADPH (final conc 0.8 mg/mL), UDPGA (final conc 0.16 mg/mL) and warmed to 37° C. for 5 min. The reaction was initiated upon addition of test compound (final concentration 0.5 μM). Immediately, at time zero, then at 3, 6, 15, 30, 60, 120 and 180 min, an aliquot (50 μL) of the incubation mixture was removed and mixed with acetonitrile (100 μL) to terminate the reaction. Internal standard was added to all samples, the samples centrifuged to sediment precipitated protein and the plates then sealed prior to UPLC-MS/MS analysis using a Quattro Premier XE (Waters corporation, USA).
Grafit (Erithacus Ltd) was used to calculate the exponential decay and consequently the rate constant (k) from the ratio of peak area of test compound to internal standard at each timepoint. The half life (T1/2) of each test compound was determined using the following equation: T1/2=0.693/k

[4] = Hydrolytic stability at a range of pHs; type: physicochemical; details: 60° C., 6 days
Description: To test the hydrolytic stability a 1 mg/mL solution of test materials was made in DMSO (0.1% solution). To 300 μL of each solution in a HPLC vials was added 1200 μL of one of the following: pH 4.0 buffer—left at 60° C. for 5 days. Samples taken t=0 hr and 6 days pH 5.5 buffer—left at 60° C. for 5 days. Samples taken t=0 hr and 6 days pH 7.4 buffer—left at 60° C. for 5 days. Samples taken t=0 hr and 6 days A 100 μL aliquot was taken at each time point and added to 900 μL of DMSO. This sample was used to determine % decomposition.
% decomposition was measured with a Bruker MicrOTOF II focus ESI Mass Spectrometer connected in parallel to Dionex Ultimate 3000 RSLC system with diode array detector.

[5] = Solubility in topical formulations; type: physicochemical; details: thermodynamic from solid
Description: The solubilities of solid exemplary compounds were determined in a selection of solvents and solvent combinations (Transcutol, 50:50 Transcutol:water, Labrasol, propylene glycol and 1:5:4 ethanol:propylene glycol:water), after equilibration. An appropriate volume of each combination was added to a manual weighing of solid compound to provide a 20 mg/mL concentration. The resulting suspension was shaken at 1000 rpm for 5 hr at 32° C. before centrifugation at 13,000×g for 10 min to pellet any precipitate. The supernatant solution was removed and inserted into a HPLC vial and quantified by HPLC-UV against a calibration of a known concentration of the compound in DMSO.

[6] = single point, screened at 30 times Kd, lower numbers indicate stronger hits
[7] = 48 hrs, ELISA, read-out: EC50 reduction of IL-4 levels
[8] = read-out: cellular EC50 values, reduction of IL-4 levels
[9] = Labrasol, oil or lipid, 5 hr at 32° C., read-out: Solubility in LB (Labrasol)
[10] = Transcutol, organic solvent or mixture, 5 hr at 32° C., read-out: Solubility in TC (Transcutol)
[11] = Transcutol:water 1:1, aqueous with cosolvent or surfactant or cyclodextrin, 5 hr at 32° C., read-out: Solubility in TC:water 1:1
[12] = propylene glycol, organic solvent or mixture, 5 hr at 32° C., read-out: Solubility in PG (Propylene glycol)

Chain of BRD2(1) (P25440 74-180): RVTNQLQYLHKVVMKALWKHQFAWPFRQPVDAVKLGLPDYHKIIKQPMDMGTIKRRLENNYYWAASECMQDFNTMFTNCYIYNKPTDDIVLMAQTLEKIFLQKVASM
Chain of BRD3(1) (Q15059 34-140): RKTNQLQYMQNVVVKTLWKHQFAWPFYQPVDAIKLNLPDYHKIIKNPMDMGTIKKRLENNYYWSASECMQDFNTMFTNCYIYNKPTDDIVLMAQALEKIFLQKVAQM
Chain of BRD2(2) (P25440 344-453): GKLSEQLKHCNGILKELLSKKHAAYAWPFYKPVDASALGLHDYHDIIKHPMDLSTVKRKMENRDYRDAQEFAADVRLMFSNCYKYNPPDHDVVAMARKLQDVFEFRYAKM
Chain of BRD3(2) (Q15059 306-415): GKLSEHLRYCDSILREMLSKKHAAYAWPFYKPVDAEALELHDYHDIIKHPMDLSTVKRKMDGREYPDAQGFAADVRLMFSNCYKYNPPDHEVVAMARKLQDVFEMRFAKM

CCNC(=O)c1cc2c(-c3ccn(C)c(=O)c3Oc3c(C)cc(F)cc3C)cn(C)c(=O)c2[nH]1 [Example 41, N-ethyl-4-(3-(4-fluoro-2,6-dimethylphenoxy)-1-methyl-2-oxo-1,2-dihydropyridin-4-yl)-6-methyl-7-oxo-6,7-dihydro-1H-pyrrolo[2,3-c]pyridine-2-carboxamide]
% reduction in IL-4 mRNA (IL-4) ([1]; 2.5 μM, Th2 biasing cocktail): ++ (> 50% reduction) | % reduction in IL-17A mRNA (IL-17) ([1]; 2.5 μM, Th17 biasing cocktail): +++ (> 75% reduction) | reduction of IL-4 or IL-17 levels ([1]; Th2 or Th17 biasing cocktail): > 50% | Kd (BRDT(1); dose response): > 3 µM | BRDT(1) % Ctrl (BRDT(1); [6]): 100 % Ctrl | Kd (BRD2(1); dose response): > 3 µM | BRD2(1) % Ctrl (BRD2(1); [6]): 100 % Ctrl | Kd (BRD4 BD2; dose response, read-out: BRD4(2) Kd): < 0.01 µM | Kd (BRD4 BD2; read-out: BRD4 BD2 Kd): ≤ 0.01 µM | BRD4(2) % Ctrl (BRD4 BD2; [6]): 8.7 % Ctrl | Kd (BRD3(1); dose response): > 3 µM | BRD3(1) % Ctrl (BRD3(1); [6]): 85 % Ctrl | EC50 [2, 7]: 0.01 to 0.1 µM | EC50 [2, 8]: < 0.1 µM | Kd (BRDT(2); dose response): < 0.01 µM | BRDT(2) % Ctrl (BRDT(2); [6]): 13 % Ctrl | Kd (BRD3(2); dose response): < 0.01 µM | BRD3(2) % Ctrl (BRD3(2); [6]): 2.3 % Ctrl | Kd (BRD2(2); dose response): < 0.01 µM | BRD2(2) % Ctrl (BRD2(2); [6]): 0.1 % Ctrl | Intrinsic clearance, % Liver Blood Flow (human liver hepatocytes): <34 % Liver Blood Flow | Kd (BRD4 BD1; dose response, read-out: BRD4(1) Kd): > 3 µM | Kd (BRD4 BD1; read-out: BRD4 BD1 Kd): > 1 µM | BRD4(1) % Ctrl (BRD4 BD1; [6]): 90 % Ctrl

Cn1cc(-c2ccc(O)cc2Oc2ccccc2)c2cc[nH]c2c1=O [Example 2, 4-(4-hydroxy-2-phenoxyphenyl)-6-methyl-1,6-dihydro-7H-pyrrolo[2,3-c]pyridin-7-one]
half-life at 0.5 μM [3]: > 120 min | pH 4.0 % decomposition ([4]; pH 4.0 buffer): 15% | pH 5.5 % decomposition ([4]; pH 5.5 buffer): 30% | pH 7.4 % decomposition ([4]; pH 7.4 buffer): 0% | Intrinsic clearance, % Liver Blood Flow (human liver hepatocytes): 88 % Liver Blood Flow | solubility at 5 hr [5, 9]: 1 to 10 mg/mL | solubility at 5 hr [5, 10]: > 10 mg/mL | solubility at 5 hr [5, 11]: 1 to 10 mg/mL | solubility at 5 hr [5, 12]: 1 to 10 mg/mL | Kd (BRD4 BD1; read-out: BRD4 BD1 Kd): 0.01 to 0.1 µM

Cn1cc(-c2cc(O)ccc2Oc2ccccc2)c2cc[nH]c2c1=O [Example 6, 4-(5-hydroxy-2-phenoxyphenyl)-6-methyl-1,6-dihydro-7H-pyrrolo[2,3-c]pyridin-7-one]
T1/2 (min) in human skin S9 fractions [3]: >120 min | half-life at 0.5 μM [3]: > 120 min | EC50 [2, 7]: 0.01 to 0.1 µM | EC50 [2, 8]: < 0.1 µM | Intrinsic clearance, % Liver Blood Flow (human liver hepatocytes): 94 % Liver Blood Flow | solubility at 5 hr [5, 9]: > 10 mg/mL | solubility at 5 hr [5, 10]: > 10 mg/mL | solubility at 5 hr [5, 11]: 1 to 10 mg/mL | solubility at 5 hr ([5]; ethanol:propylene glycol:water 1:5:4, aqueous with cosolvent or surfactant or cyclodextrin, 5 hr at 32° C., read-out: Solubility in EtOH:PG:water 1:5:4): 1 to 10 mg/mL | solubility at 5 hr [5, 12]: > 10 mg/mL | solubility at 5 hr ([5]; topical formulation solvents and solvent combinations, 32 °C, organic solvent or mixture, read-out: solubilities in the formulations described): > 1 mg/mL | Kd (BRD4 BD1; read-out: BRD4 BD1 Kd): ≤ 0.01 µM
